Activity calls are given as the source filed them. The calls are words filed in the database; no cut-off is given here. Where only a bound is given, the exact number is not on record here.

One assay concerns L1210. Put plainly: Cytotoxicity against mouse L1210 cells after 48 hrs by microculture tetrazolium assay. In kind it is functional, cell-based.
The nature of assay [1]: (§1) Cytotoxicity against human KB-3-1 cells after 96 hrs by microculture tetrazolium assay. In kind it is functional, cell-based. As to conditions: KB 3-1, 96 h.
Assay [2] can be described thus: Binding affinity to pBS plasmid 117 base-pair DNA fragment assessed as half life of DNA alkylation by gel shift assay. (In general: A gel shift assay detects complexes by their altered migration in electrophoresis.)
In assay [3] the test system is MC-38. Description: Antitumor activity against mouse Colon 38 cells xenografted B6D2F1 mouse assessed as inhibition of tumor growth at 4 mg/kg, iv administered twice daily. In kind it is functional.
The next assay has as its system KB 3-1. The assay is described as §1. In kind it is functional, cell-based.
For assay [4], the system named is MC-38. Put plainly: Antitumor activity against mouse Colon 38 cells xenografted B6D2F1 mouse assessed as inhibition of tumor growth at 2 mg/kg, iv administered twice daily. In kind it is functional.
The subject of assay [5] is MC-38. Put plainly: Toxicity in mouse Colon 38 cells xenografted B6D2F1 mouse assessed as inhibition of tumor growth at 4 mg/kg, iv administered twice daily. In kind it is functional, organism-based. The arrangement: dose 4 mg/kg.
Assay [6] has as its system MC-38. Description: Antitumor activity against mouse Colon 38 cells xenografted B6D2F1 mouse assessed as tumor free state at 4 mg/kg, iv administered twice daily on day 90 post drug dose. Also on record: dose 4 mg/kg. In kind it is functional, organism-based.
Where [7] appears, read: Mus musculus, L1210, 48 h, read-out: IC50.

One may read the IC50 as the point on the concentration scale where inhibition reaches its midpoint. For the compound `COc1cc2c(c3c1c(=O)c1cc4ccccc4cc1n3C)[C@@H](O)[C@@H](OC(C)=O)C(C)(C)O2` (racemic), the IC50 with L1210 (setting [7]) came to 620 nM; in assay [1] it was 160 nM. Also, the T1/2 in assay [2] is 0.0833 h.

For `COc1ccc(/C=C/C(=O)O[C@@H]2[C@H](O)c3c(cc(OC)c4c(=O)c5cc6ccccc6cc5n(C)c34)OC2(C)C)cc1` (racemic), the IC50 in the assay on L1210 (setting [7]) was determined as 130 nM; in assay [1] it was 30 nM.

For the compound `COc1cc2c(c3c1c(=O)c1cc4ccccc4cc1n3C)[C@@H](O)[C@@H](OC(=O)/C=C/c1ccc(C(F)(F)F)cc1)C(C)(C)O2` (racemic), the IC50 worked out at 90 nM in the assay with L1210 (setting [7]) and 20 nM in assay [1].

On to `COc1cc2c(c3c1c(=O)c1cc4ccccc4cc1n3C)[C@@H](O)[C@@H](OC(=O)/C=C/c1cccc(Br)c1)C(C)(C)O2` (racemic), for which the IC50 with L1210 (setting [7]) stood at 80 nM; in assay [1], 20 nM.

In the case of `COc1cc2c(c3c1c(=O)c1cc4ccccc4cc1n3C)[C@@H](O)[C@@H](OC(=O)/C=C/c1ccccc1Cl)C(C)(C)O2` (racemic), the IC50 in the assay with L1210 (setting [7]) came out at 50 nM; in assay [1], 20 nM.

The term inhibition in vivo denotes the drop in the measured response relative to a control, in per cent. For `COc1cc2c(c3c1c(=O)c1cc4ccccc4cc1n3C)[C@@H](OC(C)=O)[C@@H](OC(=O)/C=C/c1ccc(Cl)c(Cl)c1)C(C)(C)O2` (racemic), the IC50 amounted to 400 nM with L1210 (setting [7]) and 50 nM in assay [1]. The T1/2 in assay [2] was more than 24 h. For the same compound, the inhibition in vivo at 4 mg/kg in the assay with MC-38 [3] turned out to be 84%.

Turning to `COc1ccc(/C=C/C(=O)O[C@@H]2[C@H](O)c3c(cc(OC)c4c(=O)c5cc6ccccc6cc5n(C)c34)OC2(C)C)cc1OC` (racemic), the IC50 in the assay with L1210 (setting [7]) was determined as 1100 nM; in assay [1], 80 nM.

Take `COc1cc2c(c3c1c(=O)c1cc4ccccc4cc1n3C)[C@@H](OC(C)=O)[C@@H](OC(=O)/C=C/c1cccc(Cl)c1)C(C)(C)O2` (racemic): the IC50 entry with L1210 (l1210) is “Insoluble”. Besides, the solubility entry with KB 3-1 is listed as “Not soluble”.

As for `COc1ccc(/C=C/C(=O)O[C@@H]2[C@H](OC(C)=O)c3c(cc(OC)c4c(=O)c5cc6ccccc6cc5n(C)c34)OC2(C)C)cc1OC` (racemic), the IC50 in the assay on L1210 (setting [7]) amounted to 900 nM; in assay [1] it was 150 nM.

With `COc1cc2c(c3c1c(=O)c1cc4ccccc4cc1n3C)[C@@H](O)[C@@H](OC(=O)/C=C/c1ccc(Cl)c(Cl)c1)C(C)(C)O2` (racemic), the IC50 in the assay on L1210 (setting [7]) came to 35 nM; in assay [1], 6 nM. Further, the T1/2 in assay [2] stood at 1 h. Moreover, in the assay with MC-38 [4], the inhibition in vivo at 2 mg/kg turned out to be 90%. Further, in the assay on MC-38 [5], the Activity result is “Toxic”.

For the compound `COc1cc2c(c3c1c(=O)c1cc4ccccc4cc1n3C)[C@@H](OC(C)=O)[C@@H](OC(=O)/C=C/c1ccc(Cl)cc1)C(C)(C)O2` (racemic), the figures for the IC50 (with L1210 (setting [7]); in assay [1]) were 500 nM and 70 nM, respectively. Besides, in assay [2], the T1/2 is 6 h.

For the compound `COc1cc2c(c3c1c(=O)c1cc4ccccc4cc1n3C)[C@@H](O)[C@@H](OC(=O)/C=C/c1ccc([N+](=O)[O-])cc1)C(C)(C)O2` (racemic), the IC50 in the assay on L1210 (setting [7]) is 240 nM; in assay [1] it was 30 nM.

Regarding `COc1cc2c(c3c1c(=O)c1cc4ccccc4cc1n3C)[C@@H](OC(C)=O)[C@@H](OC(=O)/C=C/c1cccc(C(F)(F)F)c1)C(C)(C)O2` (racemic), the values for the IC50 (with L1210 (setting [7]); in assay [1]) were 700 nM and 60 nM, respectively.

As to `COc1cc2c(c3c1c(=O)c1cc4ccccc4cc1n3C)[C@@H](OC(C)=O)[C@@H](OC(=O)/C=C/c1ccccc1Cl)C(C)(C)O2` (racemic), the results for the IC50 (in the assay with L1210 (setting [7]); in assay [1]) were 600 nM and 90 nM, respectively.

On to `COc1cc2c(c3c1c(=O)c1cc4ccccc4cc1n3C)[C@@H](OC(C)=O)[C@@H](OC(=O)/C=C/c1ccccc1)C(C)(C)O2` (racemic), for which the figures for the IC50 (in the assay with L1210 (setting [7]); in assay [1]) were 1100 nM and 150 nM, respectively. The T1/2 in assay [2] was determined as 1.5 h.

For the compound `COc1cc2c(c3c1c(=O)c1cc4ccccc4cc1n3C)[C@@H](OC(C)=O)[C@@H](OC(=O)/C=C/c1ccc(C(F)(F)F)cc1)C(C)(C)O2` (racemic), the IC50 was found to be 1500 nM in the assay with L1210 (setting [7]) and 300 nM in assay [1].

As for `COc1cc2c(c3c1c(=O)c1cc4ccccc4cc1n3C)[C@@H](O)[C@@H](OC(=O)/C=C/c1ccccc1)C(C)(C)O2` (racemic), the half-maximal inhibitory concentration (IC50) in the assay on L1210 (setting [7]) was 120 nM; in assay [1] it was 30 nM. The T1/2 in assay [2] was found to be 0.333 h.

As for `COc1cc2c(c3c1c(=O)c1cc4ccccc4cc1n3C)[C@@H](OC(C)=O)[C@@H](OC(=O)/C=C/c1cccc(Br)c1)C(C)(C)O2` (racemic), the figures for the IC50 (in the assay with L1210 (setting [7]); in assay [1]) were 600 nM and 120 nM, respectively.

As to `COc1cc2c(c3c1c(=O)c1cc4ccccc4cc1n3C)[C@@H](O)[C@@H](OC(=O)/C=C/c1cccc(Cl)c1)C(C)(C)O2` (racemic), the IC50 with L1210 (setting [7]) came to 60 nM; in assay [1], 20 nM.

Turning to `COc1cc2c(c3c1c(=O)c1cc4ccccc4cc1n3C)[C@@H](O)[C@@H](OC(=O)/C=C/c1cccc(C(F)(F)F)c1)C(C)(C)O2` (racemic), the results for the IC50 (in the assay with L1210 (setting [7]); in assay [1]) were 100 nM and 15 nM, respectively.

For the compound `COc1cc2c(c3c1c(=O)c1cc4ccccc4cc1n3C)[C@@H](OC(C)=O)[C@@H](OC(=O)/C=C/c1ccc(Cl)cc1Cl)C(C)(C)O2` (racemic), the IC50 in the assay on L1210 (setting [7]) worked out at 600 nM; in assay [1], 90 nM.

On to `COc1cc2c(c3c1c(=O)c1cc4ccccc4cc1n3C)[C@@H](O)[C@@H](OC(=O)/C=C/c1ccc(Cl)cc1)C(C)(C)O2` (racemic), for which the IC50 was found to be 40 nM with L1210 (setting [7]) and 8 nM in assay [1]. The T1/2 in assay [2] was 1 h.

Consider `COc1cc2c(c3c1c(=O)c1cc4ccccc4cc1n3C)[C@@H](OC(C)=O)[C@@H](OC(=O)/C=C/c1ccc([N+](=O)[O-])cc1)C(C)(C)O2` (racemic), for which the IC50 came to 500 nM in the assay on L1210 (setting [7]) and 140 nM in assay [1].

Turning to `COc1ccc(/C=C/C(=O)O[C@@H]2[C@H](OC(C)=O)c3c(cc(OC)c4c(=O)c5cc6ccccc6cc5n(C)c34)OC2(C)C)cc1` (racemic), the IC50 in the assay with L1210 (setting [7]) was 1200 nM; in assay [1], 240 nM.

Regarding `COc1cc2c(c3c1c(=O)c1cc4ccccc4cc1n3C)[C@@H](O)[C@@H](OC(=O)/C=C/c1ccc(Cl)cc1Cl)C(C)(C)O2` (racemic), the IC50 in the assay on L1210 (setting [7]) was 35 nM; in assay [1], 6 nM.

In the case of `COc1cc2c(c3c1c(=O)c1cc4ccccc4cc1n3C)[C@@H](O)[C@@H](OC(=O)/C=C/c1ccc(Br)cc1)C(C)(C)O2` (racemic), the IC50 in the assay with L1210 (setting [7]) stood at 50 nM; in assay [1] it was 6 nM. In addition, the T1/2 in assay [2] came to 1 h.

For `COc1cc2c(c3c1c(=O)c1cc4ccccc4cc1n3C)[C@@H](OC(C)=O)[C@@H](OC(=O)/C=C/c1ccc(Br)cc1)C(C)(C)O2` (racemic), the figures for the IC50 (with L1210 (setting [7]); in assay [1]) were 700 nM and 80 nM, respectively. Further, the T1/2 in assay [2] was 6 h.

With `COc1cc2c(c3c1c(=O)c1cc4ccccc4cc1n3C)[C@@H](OC(C)=O)[C@@H](OC(C)=O)C(C)(C)O2` (racemic), the IC50 in the assay on L1210 (setting [7]) is 790 nM; in assay [1], 100 nM. Moreover, the T1/2 in assay [2] came to 0.5 h. Moreover, in the assay on MC-38 [3], the inhibition in vivo at 4 mg/kg was 99%. Also, in the assay on MC-38 [6], the result was Active.

Values taken from ChEMBL document CHEMBL1152763, “Synthesis, cytotoxic activity, and DNA binding properties of antitumor cis-1,2-dihydroxy-1,2-dihydrobenzo[b]acronycine cinnamoyl esters” (Bioorg Med Chem, 2009).
